Measured values from the supplement of paper PMC10307832.

What was measured:
Assay in all cases: relative viability (nuclei count vs DMSO), 5 days (fraction); higher = more cells survive
[1] = compound: C1=CC2=C(C=CC(=C2)C=C3C(=O)NC(=NCC4=CC=CS4)S3)N=C1 [RO-3306] + CC1(C)CCC(c2ccc(Cl)cc2)=C(CN2CCN(c3ccc(C(=O)NS(=O)(=O)c4ccc(N[C@H](CCN5CCOCC5)CSc5ccccc5)c(S(=O)(=O)C(F)(F)F)c4)cc3)CC2)C1 [Navitoclax] (partner 0.5 µM)
Procedure, shortened: (§1)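 The day after seeding in 1536-well plates, lung cancer cell lines were treated by pin tool with a single drug, or with a fixed anchor-drug dose together with five library-drug doses (not always all listed) in √10 steps. After 5 days, a combined fix-and-stain solution (final 0.05% Triton X-100, 1% formaldehyde, 1 ug/ml Hoechst) was added. Nuclei counted on 4× images gave relative viability as treated counts over vehicle counts, reported as the median of duplicate plates.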

[2] = compound: C1=CC2=C(C=CC(=C2)C=C3C(=O)NC(=NCC4=CC=CS4)S3)N=C1 [RO-3306] + CS(=O)(=O)N1CCN(Cc2cc3nc(-c4cccc5[nH]ncc45)nc(N4CCOCC4)c3s2)CC1 [Pictilisib] (partner 1 µM)
Procedure, shortened: as §1

[3] = compound: O=S(=O)(c1ccccc1)N(CC(F)(F)F)c1ccc(C(O)(C(F)(F)F)C(F)(F)F)cc1 + COc1cccc2cc(-c3nc([C@H]4CC[C@H](C(=O)O)CC4)n4ncnc(N)c34)[nH]c12 [OSI-027] (partner 0.5 µM)
Procedure, shortened: as §1

[4] = compound: O=S(=O)(c1ccccc1)N(CC(F)(F)F)c1ccc(C(O)(C(F)(F)F)C(F)(F)F)cc1 + O=C(CCCCCCC(=O)Nc1ccccc1)NO [Vorinostat] (partner 1 µM)
Procedure, shortened: as §1

Row | Cell Line | relative viability ([1]; first compound 0.01 µM) | relative viability ([1]; first compound 0.03162 µM) | relative viability ([1]; first compound 0.1 µM) | relative viability ([1]; first compound 0.3162 µM) | relative viability ([1]; first compound 1 µM) | relative viability ([2]; first compound 0.01 µM) | relative viability ([2]; first compound 0.03162 µM) | relative viability ([2]; first compound 0.1 µM) | relative viability ([2]; first compound 0.3162 µM) | relative viability ([2]; first compound 1 µM) | relative viability ([3]; first compound 0.8 µM) | relative viability ([3]; first compound 2.53 µM) | relative viability ([3]; first compound 8 µM) | relative viability ([4]; first compound 0.8 µM) | relative viability ([4]; first compound 2.53 µM) | relative viability ([4]; first compound 8 µM)
1 | 201T | 1.2 | 1.21 | 1.14 | 1.23 | 1.23 | 0.671 | 0.616 | 0.668 | 0.663 | 0.559 | 0.685 | 0.738 | 0.688 | 0.953 | 0.918 | 0.865
2 | EBC-1 | 0.412 | 0.357 | 0.315 | 0.474 | 0.29 | 0.454 | 0.327 | 0.397 | 0.448 | 0.286 |  |  |  |  |  | 
3 | LCLC-97TM1 |  | 0.292 | 0.354 | 0.399 | 0.317 |  | 0.18 | 0.165 | 0.254 | 0.183 | 0.614 | 0.527 | 0.603 |  | 0.562 | 0.567
4 | NCI-H522 |  |  |  |  |  |  |  |  |  |  | 0.615 | 0.754 | 0.903 | 0.833 | 0.973 | 0.959
5 | NCI-H1395 | 1.13 | 1.38 | 1.11 | 1.04 | 0.978 | 0.589 | 0.911 | 0.547 | 0.644 | 0.753 | 0.512 | 0.57 | 0.579 | 0.532 | 0.594 | 0.759
6 | LU99A | 0.916 | 0.708 | 0.866 | 0.747 | 0.803 | 0.33 | 0.292 | 0.343 | 0.284 | 0.295 | 0.302 | 0.296 | 0.302 | 0.568 | 0.462 | 0.401
7 | Calu-6 | 1.06 | 0.776 | 0.934 | 0.908 | 0.826 | 1.1 | 0.97 | 0.934 | 0.866 | 0.91 |  |  |  |  |  | 
8 | NCI-H2228 | 1.19 | 0.805 | 0.673 | 1.07 | 0.62 | 0.456 | 0.37 | 0.363 | 0.381 | 0.269 | 0.542 | 0.348 | 0.521 | 0.62 | 0.427 | 0.644
9 | NCI-H1915 | 0.808 | 0.797 | 0.792 | 0.781 | 0.718 | 0.919 | 0.827 | 0.878 | 0.917 | 0.615 | 0.643 | 0.646 | 0.649 | 0.51 | 0.568 | 0.499
10 | NCI-H2405 | 0.91 | 0.735 | 0.934 | 0.949 | 0.834 | 0.369 | 0.433 | 0.496 | 0.534 | 0.427 | 0.674 | 0.645 | 0.681 | 1.02 | 0.755 | 0.913
11 | NCI-H661 |  |  |  |  |  | 0.41 | 0.377 | 0.356 | 0.392 | 0.363 | 0.737 | 0.788 | 0.738 | 0.828 | 0.783 | 0.821
12 | EPLC-272H | 1.15 | 0.92 | 1.02 | 1.11 | 0.994 | 0.3 | 0.211 | 0.275 | 0.255 | 0.287 | 0.301 | 0.304 | 0.25 | 0.319 | 0.476 | 0.396
13 | NCI-H2023 | 1.05 | 0.912 | 0.898 | 0.943 | 1.01 | 0.168 | 0.241 | 0.225 | 0.219 | 0.167 | 0.41 | 0.279 | 0.286 | 0.567 | 0.422 | 0.512
14 | NCI-H1299 | 1.08 | 1.11 | 1.04 | 1 | 1.03 | 0.873 | 0.854 | 0.833 | 0.796 | 0.649 |  |  |  |  |  | 
15 | NCI-H358 |  |  |  |  |  | 0.308 | 0.387 | 0.319 | 0.321 | 0.31 | 0.743 | 0.751 | 0.543 |  | 0.581 | 0.541
16 | NCI-H1734 | 1 | 0.564 | 0.922 | 0.797 | 0.873 | 0.53 | 0.435 | 0.468 | 0.452 | 0.447 | 0.708 | 0.55 | 0.637 | 1.01 | 0.898 | 0.498
17 | SW 900 |  |  |  |  |  |  |  |  |  |  | 0.52 | 0.519 | 0.591 | 0.498 | 0.498 | 0.699
18 | ABC-1 |  |  |  |  |  | 0.688 | 0.725 | 0.712 | 0.732 | 0.866 | 0.539 | 0.426 | 0.549 |  | 0.882 | 0.912
19 | A549 | 1.36 |  | 1.2 | 1.18 | 1.21 | 0.551 | 0.485 | 0.477 | 0.504 | 0.323 |  |  |  |  |  | 
20 | NCI-H1623 |  |  |  |  |  |  |  |  |  |  | 0.469 | 0.389 | 0.484 |  |  | 
21 | NCI-H1703 | 1.23 | 0.913 | 1.08 | 0.887 | 1.13 | 0.241 | 0.221 | 0.237 | 0.241 | 0.254 |  |  |  |  |  | 
22 | LCLC-103H |  |  |  |  |  | 0.461 | 0.556 | 0.561 | 0.655 | 0.608 | 0.507 | 0.505 | 0.439 | 0.859 | 0.746 | 0.78
23 | NCI-H1792 | 0.74 |  | 0.614 | 0.599 | 0.311 | 0.288 |  | 0.288 | 0.287 | 0.224 | 0.688 | 0.717 | 0.458 |  |  | 
24 | NCI-H1563 |  |  |  |  |  | 0.641 | 0.597 | 0.69 | 0.62 | 0.59 | 0.792 | 0.734 | 0.854 |  |  | 
25 | IA-LM | 0.838 | 0.591 | 0.717 | 0.903 | 1.04 | 0.339 | 0.242 | 0.311 | 0.278 | 0.36 |  |  |  | 0.917 | 0.757 | 0.553
26 | NCI-H650 |  |  |  |  |  | 0.983 | 0.928 | 0.792 | 0.777 | 0.916 | 0.533 | 0.498 | 0.532 | 0.368 | 0.36 | 0.359
27 | NCI-H2342 |  |  |  |  |  |  |  |  |  |  | 0.646 | 0.626 | 0.58 | 0.8 | 0.841 | 0.741
